From US20250195521A1 (Revolution Medicines, Inc., priority 2020, published 2025)
Like-named read-outs stand apart in the source and are kept apart here.

Legend:
[1] = target: K-Ras G12C(GMP-PNP) binding to BRAF RBD (Homo sapiens (Human), UniProt P01116+P62937, G12C); test: Disruption of BRAF RBD interaction with K-Ras (FRET / MOA assay), K-Ras G12C; type: biochemical
From the text: Note—The following protocol describes a procedure for monitoring disruption of K-Ras G12C(GMP-PNP) binding to BRAF^RBD by a compound of the invention. This protocol may also be executed substituting other Ras proteins or nucleotides.
The purpose of this biochemical assay was to measure the ability of test compounds to facilitate ternary complex formation between a nucleotide-loaded K-Ras isoform and Cyclophilin A; the resulting ternary complex disrupts binding to a BRAF^RBD construct, inhibiting K-Ras signaling through a RAF effector. Data is reported as IC50 values.
Compound was present in plate wells as a 10-point 3-fold dilution series starting at a final concentration of 30 μM. After incubation at 25° C. for 3 hours, a mixture of Anti-His Eu—W1024 and anti-GST allophycocyanin was then added to assay sample wells at final concentrations of 10 nM and 50 nM, respectively, and the reaction incubated for an additional 1.5 hours. […] Compounds that facilitate disruption of a K-Ras: RAF complex were identified as those eliciting a decrease in the TR-FRET ratio relative to DMSO control wells.

NCI-H358 (K-Ras G12C) = test: CellTiter-Glo cell viability assay, NCI-H358; type: cell-based, human
Summary of the method: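 Viability is measured as ATP-dependent luminescence (CellTiter-Glo) five days into compound treatment. Responses are normalized to vehicle (DMSO) wells and fitted by four-parameter logistic regression.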

[2] = system: K-Ras G12C (NCI-H358 cells); test: Potency assay: pERK in NCI-H358 cells; type: cell-based, human; settings: read-out: pERK EC50 (H358 KRAS G12C)
Summary of the method: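 Cells plated the day before were exposed for 4 h at 37° C, 5% CO2 to a 10-point, 3-fold DMSO dilution series (10 mM top stock), in duplicate. Phospho-ERK was read by AlphaLISA SureFire Ultra or by In-Cell Western with DRAQ5 DNA stain, and IC50 came from a 4-parameter sigmoidal fit.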

[3] = system: Capan-1 cells (K-Ras G12V); test: CellTiter-Glo cell viability, Capan-1; type: cell-based, human; settings: Homo sapiens, CAPAN-1, 120 h, K-Ras G12V, 5-day treatment; read-out: Capan-1 Cell Viability IC50
Summary of the method: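 Viability is read as luminescence after five days of compound exposure, with plates first equilibrated to room temperature for roughly 30 minutes. Each signal is expressed as a percentage of the mean DMSO control, and curves are fitted by four-parameter logistic regression.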

[4] = Homo sapiens, NCI-H358, 120 h, 5-day treatment, read-out: H358 Cell Viability assay data (K-Ras G12C, IC50)
[5] = Homo sapiens, NCI-H358 cells, 4 hours
[6] = 5-day treatment, read-out: H358 Cell Viability assay data (K-Ras G12C, IC50)

Sequence of K-Ras G12C(GMP-PNP) binding to BRAF RBD (P01116 other isoform, or with tags, fused parts or gaps G12C): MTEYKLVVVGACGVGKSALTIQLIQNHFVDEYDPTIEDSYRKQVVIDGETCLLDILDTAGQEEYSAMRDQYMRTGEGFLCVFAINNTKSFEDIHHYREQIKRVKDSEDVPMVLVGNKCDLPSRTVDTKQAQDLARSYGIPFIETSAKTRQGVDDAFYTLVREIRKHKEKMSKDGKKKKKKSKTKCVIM
Sequence of K-Ras G12C(GMP-PNP) binding to BRAF RBD (P62937 whole entry): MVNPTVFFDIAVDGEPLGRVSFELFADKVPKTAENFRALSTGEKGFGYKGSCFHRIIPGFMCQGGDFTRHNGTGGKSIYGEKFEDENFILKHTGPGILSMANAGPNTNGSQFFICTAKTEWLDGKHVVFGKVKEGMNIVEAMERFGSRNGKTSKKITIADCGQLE

IC50 ([1]; read-out: KRAS G12C FRET IC50) | IC50 (NCI-H358 (K-Ras G12C); [4]) | EC50 [2, 5] | SMILES | further results
100 to 1000 nM | 0.1 to 1 µM | < 5000 nM | CCn1c(-c2cccnc2[C@H](C)OC)c2c3cc(ccc31)-c1cc(O)cc(c1)C[C@H](NC(=O)[C@H](C(C)C)N(C)C(=O)[C@H]1CCN(C(=O)OC(C)C)C1)C(=O)N1CCC[C@H](N1)C(=O)OCC(C)(C)C2 [Compound A117] | 
< 10 nM | < 0.01 µM |  | CCn1c(-c2cccnc2[C@H](C)OC)c2c3cc(ccc31)-c1cc(O)cc(c1)C[C@H](NC(=O)[C@H](C(C)C)N(C)C(=O)[C@H]1CCN(C(=O)[C@@]3(C)CCCN3)C1)C(=O)N1CCC[C@H](N1)C(=O)OCC(C)(C)C2 [Compound A135] | IC50 (NCI-H358 (K-Ras G12C); [6]): 0.01 to 0.1 µM; IC50 [3]: 1000 to 10000 nM
10 to 100 nM | 0.01 to 0.1 µM | < 5000 nM | CCn1c(-c2cccnc2[C@H](C)OC)c2c3cc(ccc31)-c1nc(cs1)C[C@H](NC(=O)[C@H](C(C)C)N(C)C(C)=O)C(=O)N1CCC[C@H](N1)C(=O)OCC(C)(C)C2 [Compound A152] | 
1000 to 10000 nM | 0.1 to 1 µM | < 5000 nM | CCn1c(-c2cccnc2[C@H](C)OC)c2c3cc(ccc31)-c1cc(O)cc(c1)C[C@H](NC(=O)[C@H](C(C)C)N(C)C(=O)N1CC(N(C)C)C1)C(=O)N1CCC[C@H](N1)C(=O)OCC(C)(C)C2 [Compound A171] | 
10 to 100 nM | 0.01 to 0.1 µM | < 5000 nM | CCn1c(-c2cccnc2[C@H](C)OC)c2c3cc(ccc31)-c1cc(O)cc(c1)C[C@H](NC(=O)[C@@H](NC(C)=O)C(C)(C)OC)C(=O)N1CCC[C@H](N1)C(=O)OCC(C)(C)C2 [Compound A172] | 
10 to 100 nM | 0.01 to 0.1 µM |  | CCn1c(-c2cccnc2[C@H](C)OC)c2c3cc(ccc31)-c1csc(n1)C[C@H](NC(=O)[C@H](C(C)C)N(C)C(=O)[C@H]1CCCO1)C(=O)N1CCC[C@H](N1)C(=O)OCC(C)(C)C2 [Compound A238] | 
1000 to 10000 nM | 0.1 to 1 µM |  | CCn1c(-c2cccnc2[C@H](C)OC)c2c3cc(ccc31)-c1csc(n1)C[C@H](NC(=O)[C@H](C(C)C)N(C)C(=O)N1CCC13CN(C)C3)C(=O)N1CCC[C@H](N1)C(=O)OCC(C)(C)C2 [Compound A274] | 
< 10 nM | < 0.01 µM | < 5000 nM | CCn1c(-c2cccnc2[C@H](C)OC)c2c3cc(ccc31)-c1csc(n1)C[C@H](NC(=O)[C@H](C(C)C)N(C)C(=O)N1CCN(C(=O)CN(C)C)CC1)C(=O)N1CCC[C@H](N1)C(=O)OCC(C)(C)C2 [Compound A290] | 
1000 to 10000 nM | > 10 µM |  | CCn1c(-c2cccnc2[C@H](C)OC)c2c3cc(ccc31)-c1csc(n1)C[C@H](NC(=O)[C@H](C(C)C)N(C)C(=O)N1C[C@H]3CN(C)C[C@H]3C1)C(=O)N1CCC[C@H](N1)C(=O)OCC(C)(C)C2 [Compound A313] | 
100 to 1000 nM | 0.01 to 0.1 µM | < 5000 nM | CCn1c(-c2cccnc2[C@H](C)OC)c2c3cc(ccc31)-c1csc(n1)C[C@H](NC(=O)[C@H](C(C)C)N(C)C(=O)N1CCCOCC1)C(=O)N1CCC[C@H](N1)C(=O)OCC(C)(C)C2 [Compound A335] | 
100 to 1000 nM | 0.01 to 0.1 µM |  | CCn1c(-c2cccnc2[C@H](C)OC)c2c3cc(ccc31)-c1cc(C#N)cc(c1)C[C@H](NC(=O)[C@H](C(C)C)N(C)C(C)=O)C(=O)N1CCC[C@H](N1)C(=O)OCC(C)(C)C2 [Compound A430] | 
1000 to 10000 nM | 0.01 to 0.1 µM |  | CCn1c(-c2cccnc2[C@H](C)OC)c2c3cc(ccc31)-c1csc(n1)C[C@H](NC(=O)[C@H](C(C)C)N(C)C(=O)N1CC3(CC(N(C)CCO)C3)C1)C(=O)N1CCC[C@H](N1)C(=O)OCC(C)(C)C2 [Compound A467] | 
100 to 1000 nM | 0.01 to 0.1 µM |  | CCn1c(-c2cccnc2[C@H](C)OC)c2c3cc(ccc31)-c1csc(n1)C[C@H](NC(=O)[C@H](C(C)C)N(C)C(=O)N1CC[C@H]3CN(C)C[C@H]31)C(=O)N1CCC[C@H](N1)C(=O)OCC(C)(C)C2 [Compound A471] | IC50 [3]: 100 to 1000 nM
10 to 100 nM | < 0.01 µM | < 5000 nM | CCn1c(-c2cccnc2[C@H](C)OC)c2c3cc(ccc31)-c1csc(n1)C[C@H](NC(=O)[C@H](C(C)C)N(C)C(=O)N1CC3(CCN(C)CC3)C1)C(=O)N1CCC[C@H](N1)C(=O)OCC(C)(C)C2 [Compound A513] | 
10 to 100 nM | < 0.01 µM | < 5000 nM | CCn1c(-c2cccnc2[C@H](C)OC)c2c3cc(ccc31)-c1csc(n1)C[C@H](NC(=O)[C@H](C1CCCC1)N(C)C(=O)N1CCN(C)CC1)C(=O)N1CCC[C@H](N1)C(=O)OCC(C)(C)C2 [Compound A525] | 
100 to 1000 nM | 0.1 to 1 µM |  | CCn1c(-c2cc(N3CCN(C)CC3)cnc2[C@H](C)OC)c2c3cc(ccc31)-c1cccc(c1)C[C@H](NC(=O)[C@H](C(C)C)N(C)C(=O)[C@@H]1OCC[C@@H]1c1ccccc1)C(=O)N1CCC[C@H](N1)C(=O)OCC(C)(C)C2 [Compound A562] | 
 | < 0.01 µM | < 5000 nM | CCn1c(-c2cccnc2[C@H](C)OC)c2c3cc(ccc31)-c1csc(n1)C[C@H](NC(=O)[C@H](C(C)C)N(C)C(=O)N1CCC(N(C)C)CC1)C(=O)N1CCC[C@H](N1)C(=O)OCC(C)(C)C2 [Compound A571] | IC50 ([1]; KRAS G12C FRET IC50): 100 to 1000 nM
< 10 nM | < 0.01 µM | < 5000 nM | CCn1c(-c2cccnc2[C@H](C)OC)c2c3cc(ccc31)-c1csc(n1)C[C@H](NC(=O)[C@H](C(C)C)N(C)C(=O)N1CCC13CCOCC3)C(=O)N1CCC[C@H](N1)C(=O)OCC(C)(C)C2 [Compound A601] | 
100 to 1000 nM | 0.01 to 0.1 µM |  | CCn1c(-c2cccnc2[C@H](C)OC)c2c3cc(ccc31)-c1csc(n1)C[C@H](NC(=O)[C@H](C(C)C)N(C)C(=O)N1CC(C3CN(C)C3)C1)C(=O)N1CCC[C@H](N1)C(=O)OCC(C)(C)C2 [Compound A608] | 

SMILES | IC50 ([1]; read-out: KRAS G12C FRET IC50) | IC50 (NCI-H358 (K-Ras G12C); [4]) | EC50 [2, 5] | further results
CCn1c(-c2cccnc2[C@H](C)OC)c2c3cc(ccc31)-c1cc(O)cc(c1)C[C@H](NC(=O)[C@H](C(C)C)N(C)C(=O)C1(N)CC1)C(=O)N1CCC[C@H](N1)C(=O)OCC(C)(C)C2 [Compound A168] | 100 to 1000 nM |  |  | IC50 (NCI-H358 (K-Ras G12C); Homo sapiens, NCI-H358, 120 h, read-out: H358 Cell Viability assay data (K-Ras G12C, IC50, uM), 5-day treatment): 0.01 to 0.1 µM; EC50 ([2]; Homo sapiens, NCI-H358, 4 h): < 5000 nM
CCO[C@@H]1c2nc(cs2)-c2ccc3c(c2)c(c(-c2cc([C@H]4CCN5CCOC[C@@H]5C4)cnc2[C@H](C)OC)n3CC)CC(C)(C)COC(=O)[C@@H]2CCCN(N2)C(=O)[C@H]1NC(=O)[C@H]1[C@H](C)[C@@H]1C [Compound A390, (1r,2R,3S)—N-((6^3S,3S,4S,Z)-3-ethoxy-1^1-ethyl-1^2-(2-((S)-1-methoxyethyl)-5-((8R,9aS)-octahydropyrido [2,1-c][1,4]oxazin-8-yl)pyridin-3-yl)-10,10-dimethyl-5,7-dioxo-6^1,6^2,6^3,6^4,6^5,6^6-hexahydro-1^1H-8-oxa-2 (4,2)-thiazola-1 (5,3)-indola-6 (1,3)-pyridazinacycloundecaphane-4-yl)-2,3-dimethylcyclopropane-1-carboxamide] | 100 to 1000 nM |  |  | IC50 (NCI-H358 (K-Ras G12C); [6]): 0.1 to 1 µM; EC50 ([2]; NCI-H358 cells, 4 hours): < 5000 nM
